The subject of assay [1] is NOMO1 cells. Kind of assay: drug treatment assay, cell viability by Cell Titer-Glo. The format is cell-based, human. How it is done:
After 24 hr incubation, cells were treated with 5-FU (100 nM, 1 μM, 10 μM, 100 μM, or 1 mM) or doxorubicin (1.95 nM, 7.81 nM, 31.25 nM, 125 nM, or 500 nM). All wells, including untreated controls, contained 0.5% DMSO. Following addition of drugs, plates were gently shaken for 2 min. After 4 days of treatment, 200 μL from each well was transferred to a white 96-well plate (Greiner) and cell viability was assessed with Cell Titer-Glo (Promega). Luminescence was measured with a SpectraMax M5 Plate Reader (Molecular Devices) and normalized to an untreated control.
(§1) Dose-response values were plotted in GraphPad Prism and fit using a One Site-Fit log IC50 equation.

The test system of assay [2] is SW620 cells. In words: drug treatment assay, cell viability by Cell-Titer Glo. Type of assay: cell-based, human. The conditions noted are these: removal of uric acid from HPLM+dIFS. How it is done: SW620 cells were seeded at a density of 2000 cells/well and allowed to attach for 24 hr. 5-FU and doxorubicin were prepared in DMSO and dispensed using an HP D300 compound dispenser. Cell viability was assessed with Cell-Titer Glo at 4 days following treatment and luminescence was measured as described above.
as §1

As for `COc1cccc2c1C(=O)c1c(O)c3c(c(O)c1C2=O)C[C@@](O)(C(=O)CO)C[C@@H]3O[C@H]1C[C@H](N)[C@H](O)[C@H](C)O1` [doxorubicin], the potency of doxorubicin entry in assay [1] (culture in HPLM+dIFS compared to RPMI+IFS and RPMI+dIFS) is reported as “without affecting the potency of doxorubicin”. The values for the doxorubicin sensitivity result in assay [1] (removal of uric acid from HPLM+dIFS) and in assay [2] were “without affecting doxorubicin sensitivity” and “did not influence doxorubicin sensitivity”, respectively.

These data come from patent publication US11453858B2, “Human plasma-like medium” (Whitehead Institute for Biomedical Research, priority 2016, dated 2022).
